According to patent publication US20240285615A1, “MEDICAMENTS COMPRISING GLYCOSIDASE INHIBITORS” (priority 2021, published 2024):

Experiment: Summary statistics of steady-state metrics by mathematical modeling of pharmacokinetic data
Set-up: species or system human
Text: The following summary statistics of steady-state metrics have been determined based on the above experimental results (“Mathematical Modeling of Pharmacokinetic Data”, D. W. A. Bourne, Routledge, 2018): […]

In the case of CC(=O)Nc1nnc(N2CCN([C@@H](C)c3ccc4c(c3)OCO4)CC2)s1 [Compound (I)], the AUC mean (BID 125 mg) is reported as 12589 ng·h/mL, the AUC median (BID 125 mg) is reported as 12388 ng·h/mL and the Cavg mean (BID 125 mg) is reported as 521 ng/mL. For the same molecule, the Cavg median (BID 125 mg) was 358 ng/mL, the Cmax mean (BID 125 mg) was 1508 ng/mL and the Cmax median (BID 125 mg) was 1510 ng/mL. It also gave a Cmin mean (BID 125 mg) of 139 ng/mL, a Cmin median (BID 125 mg) of 130 ng/mL and an AUC mean (BID 250 mg) of 25763 ng·h/mL. The AUC median (BID 250 mg) was 25044 ng·h/mL, the Cavg mean (BID 250 mg) was 1041 ng/mL and the Cavg median (BID 250 mg) was 720 ng/mL. It also gave a Cmax mean (BID 250 mg) of 3027 ng/mL, a Cmax median (BID 250 mg) of 3019 ng/mL and a Cmin mean (BID 250 mg) of 307 ng/mL. For the same molecule, the Cmin median (BID 250 mg) was 276 ng/mL, the AUC mean (BID 500 mg) was 52673 ng·h/mL and the AUC median (BID 500 mg) was 52166 ng·h/mL. For the same molecule, the Cavg mean (BID 500 mg) was 2178 ng/mL, the Cavg median (BID 500 mg) was 1531 ng/mL and the Cmax mean (BID 500 mg) was 6126 ng/mL. It also gave a Cmax median (BID 500 mg) of 6133 ng/mL, a Cmin mean (BID 500 mg) of 654 ng/mL and a Cmin median (BID 500 mg) of 617 ng/mL. It also gave an AUC mean (TID 75 mg) of 11072 ng·h/mL, an AUC median (TID 75 mg) of 10887 ng·h/mL and a Cavg mean (TID 75 mg) of 456 ng/mL. It also gave a Cavg median (TID 75 mg) of 392 ng/mL, a Cmax mean (TID 75 mg) of 1058 ng/mL and a Cmax median (TID 75 mg) of 1053 ng/mL. The Cmin mean (TID 75 mg) was 109 ng/mL, the Cmin median (TID 75 mg) was 101 ng/mL and the AUC mean (TID 150 mg) was 23204 ng·h/mL. For the same molecule, the AUC median (TID 150 mg) was 22835 ng·h/mL, the Cavg mean (TID 150 mg) was 951 ng/mL and the Cavg median (TID 150 mg) was 827 ng/mL. It also gave a Cmax mean (TID 150 mg) of 2162 ng/mL, a Cmax median (TID 150 mg) of 2143 ng/mL and a Cmin mean (TID 150 mg) of 257 ng/mL. The Cmin median (TID 150 mg) was 240 ng/mL, the AUC mean (TID 300 mg) was 46780 ng·h/mL and the AUC median (TID 300 mg) was 45869 ng·h/mL. The Cavg mean (TID 300 mg) was 1909 ng/mL, the Cavg median (TID 300 mg) was 1660 ng/mL and the Cmax mean (TID 300 mg) was 4348 ng/mL. It also gave a Cmax median (TID 300 mg) of 4298 ng/mL, a Cmin mean (TID 300 mg) of 533 ng/mL and a Cmin median (TID 300 mg) of 499 ng/mL.
